Test results: US20230096766A1, “AMINO ACID HAVING FUNCTIONAL GROUP CAPABLE OF INTERMOLECULAR HYDROGEN BONDING, PEPTIDE COMPOUND CONTAINING SAME AND METHOD FOR PRODUCTION THEREOF” (Chugai Seiyaku Kabushiki Kaisha, priority 2018, published 2023)
*1 amine or outer side, *2 acyl side, *3 side chain or, on linkers, in order; H or OH if unused. Where a SMILES comes first, the peptide text is derived from it. Bridges are numbered along the chain shown (N, C = ends). [ ]: non-standard residue; d: D form. The star is where a group is joined. ξ: configuration not given here. dhPhe(4-CONHMe,3-OMe) = CNC(=O)c1ccc(CC[C@@H](N)C(=O)O)cc1OC; hPhe(3-OMe,4-CONHMe) = CNC(=O)c1ccc(CC[C@H](N)C(=O)O)cc1OC; Glu(NHSO2Me) = CS(=O)(=O)NC(=O)CC[C@H](N)C(=O)O; NMePhe(3-Cl) = CN[C@@H](Cc1cccc(Cl)c1)C(=O)O; NMeW = CN[C@@H](Cc1c[nH]c2ccccc12)C(=O)O; NMehPhe = CN[C@@H](CCc1ccccc1)C(=O)O; Propyl(2,2-Me2,3-OH) = CC(C)(CO)C*; X6 = O=C([C@H](CCCCO)N[*:1])[*:2]; Hyp = O=C(O)[C@@H]1C[C@@H](O)CN1; NMeF = CN[C@@H](Cc1ccccc1)C(=O)O; NMeI = CC[C@H](C)[C@H](NC)C(=O)O; CH2CONHtBu = CC(C)(C)NC(=O)C*; NMeL = CN[C@@H](CC(C)C)C(=O)O; Thr(3ξ) = CC(O)[C@H](N)C(=O)O; NMeV = CN[C@H](C(=O)O)C(C)C; NMeAbu = CC[C@H](NC)C(=O)O; NMeA = CN[C@@H](C)C(=O)O; Piperidide = C1CCN(*)CC1; dAbu = CC[C@@H](N)C(=O)O; CH2CMe2OH = CC(C)(O)C*; NBuGly = CCCCNCC(=O)O; Isopentyl = CC(C)CC*; NPrGly = CCCNCC(=O)O; Ethyl(2-OH) = OCC*; Sar = CNCC(=O)O; tBu = CC(C)(C)*

Test: in vitro
Conditions: human, Caco-2, Caco-2

Q: Which Papp does the source give for CCCCN1CC(=O)N(C)[C@@H](CC(C)C)C(=O)N[C@@H](CCC(=O)NS(C)(=O)=O)C(=O)N(C)[C@@H](Cc2cccc(Cl)c2)C(=O)N(C)[C@@H](C(C)C)C(=O)N[C@H](C(=O)N2CCCCC2)CC(=O)N[C@H](CC(C)C)C(=O)N(C)[C@@H](Cc2cccc(Cl)c2)C(=O)N[C@@H](CC(C)C)C(=O)N(C)[C@@H](CC(C)C)C(=O)N[C@@H]([C@@H](C)O)C1=O [pd60] ([dL][NMePhe(3-Cl)]L[NMeL]T[NBuGly][NMeL][Glu(NHSO2Me)][NMePhe(3-Cl)][NMeV]D-Piperidide; lactam N-11) here?
A: 0.01 ×10⁻⁶ cm/s

Same assay, conditions: human, Caco-2, Caco-2 (cm/sec)

Q: For CCCN1CC(=O)N(C)[C@@H](CC(C)C)C(=O)N[C@H](C(=O)N2CCCCC2)CC(=O)N(C)[C@@H](C)C(=O)N[C@@H](CC(C)C)C(=O)N(C)[C@@H](CC(C)C)C(=O)N(C)[C@@H](Cc2ccccc2)C(=O)N[C@@H](COCC(C)(C)O)C(=O)N(C)[C@@H](Cc2ccccc2)C(=O)N(C)[C@@H]([C@@H](C)CC)C(=O)N[C@@H]([C@@H](C)O)C1=O [AP06] ([NMeA]L[NMeL][NMeF]S(CH2CMe2OH)[NMeF][NMeI]T[NPrGly][NMeL]D-Piperidide; lactam N-11), which Papp is on record?
A: 0.033 ×10⁻⁶ cm/s

Q: Which Papp does the source give for CC(C)C[C@@H]1NC(=O)[C@H](Cc2c[nH]c3ccccc23)N(C)C(=O)[C@@H](C(C)C)NC(=O)C[C@@H](C(=O)N2CCCCC2)NC(=O)[C@H](CC(C)C)N(C)C(=O)[C@H](CC(C)C)N(C)C(=O)[C@H](COC(C)(C)C)NC(=O)[C@H](CC(C)C)N(C)C(=O)CN(C)C(=O)[C@H]([C@@H](C)O)NC(=O)[C@H](CC(C)C)N(C)C1=O [pd106] ([dV][NMeW]L[NMeL]T[Sar][NMeL]S(tBu)[NMeL][NMeL]D-Piperidide; lactam N-11) here?
A: 0.36 ×10⁻⁶ cm/s

Q: With CCCN1CC(=O)N(C)[C@@H](CC(C)C)C(=O)N[C@@H](COCCC(C)C)C(=O)N(C)[C@@H](Cc2ccccc2)C(=O)N(C)[C@@H](CC(C)C)C(=O)N[C@H](C(=O)N2CCCCC2)CC(=O)N[C@H](CC)C(=O)N(C)[C@@H](CCc2ccccc2)C(=O)N[C@@H](CCCCO)C(=O)N(C)[C@@H](CC(C)C)C(=O)N[C@@H]([C@@H](C)O)C1=O [Compound B01] ([dAbu][NMehPhe][X6][NMeL]T[NPrGly][NMeL]S(Isopentyl)[NMeF][NMeL]D-Piperidide; lactam N-11) as the compound, how does the Papp read?
A: < 0.11 ×10⁻⁶ cm/s

Q: Which Papp does the source give for CCCCN1CC(=O)N(C)[C@@H](CC(C)C)C(=O)N[C@@H](COC(C)(C)C)C(=O)N(C)[C@@H](CC(C)C)C(=O)N(C)[C@@H](CC)C(=O)N[C@H](C(=O)N2CCCCC2)CC(=O)N[C@H](CC(C)C)C(=O)N(C)[C@@H](Cc2ccccc2)C(=O)N[C@H](CCc2ccc(C(=O)NC)c(OC)c2)C(=O)N(C)[C@@H](CC(C)C)C(=O)N[C@@H]([C@@H](C)O)C1=O [AP209] ([dL][NMeF][dhPhe(4-CONHMe,3-OMe)][NMeL]T[NBuGly][NMeL]S(tBu)[NMeL][NMeAbu]D-Piperidide; lactam N-11) here?
A: 0.56 ×10⁻⁶ cm/s

Q: Which Papp does the source give for CC[C@H](C)[C@@H]1NC(=O)[C@H](CC(C)C)NC(=O)[C@H](CC(C)C)N(C)C(=O)[C@H](CC(C)C)NC(=O)C[C@@H](C(=O)N2CCCCC2)NC(=O)[C@H](CC(C)C)N(C)C(=O)[C@H]([C@@H](C)O)NC(=O)[C@H](CCc2ccc(C(=O)NC)c(OC)c2)NC(=O)[C@H](CC(C)C)N(C)C1=O [AP263] (L[NMeL]LI[NMeL][hPhe(3-OMe,4-CONHMe)]T[NMeL]D-Piperidide; lactam N-9) here?
A: 1.8 ×10⁻⁶ cm/s

Q: With CC[C@H](C)[C@H]1C(=O)N2CCC[C@H]2C(=O)N(C)[C@@H](CC(C)C)C(=O)N[C@@H](COC(C)(C)C)C(=O)N2C[C@H](OCCO)C[C@H]2C(=O)N[C@@H]([C@@H](C)O)C(=O)N(C)[C@@H](CC(C)C)C(=O)N(C)[C@@H](CC(C)C)C(=O)N(C)[C@@H](CC(C)C)C(=O)N[C@H](C(=O)N2CCCCC2)CC(=O)N[C@H](CC(C)C)C(=O)N1C [AP238] ([dL][NMeI]P[NMeL]S(tBu)[Hyp](Ethyl(2-OH))T[NMeL][NMeL][NMeL]D-Piperidide; lactam N-11) as the compound, how does the Papp read?
A: 2 ×10⁻⁶ cm/s

Q: Which Papp does the source give for CCCCN1CC(=O)N(C)[C@@H](CC(C)C)C(=O)N[C@@H](COCC(=O)NC(C)(C)C)C(=O)N(C)[C@@H](CCc2ccccc2)C(=O)N(C)[C@@H](C)C(=O)N[C@H](C(=O)N2CCCCC2)CC(=O)N[C@H](CC(C)C)C(=O)N(C)[C@@H](CC(C)C)C(=O)N[C@@H](Cc2ccccc2)C(=O)N(C)[C@@H](CC(C)C)C(=O)N[C@@H](C(C)O)C1=O (stereo partly drawn) [AP12] ([dL][NMeL]F[NMeL][Thr(3ξ)][NBuGly][NMeL]S(CH2CONHtBu)[NMehPhe][NMeA]D-Piperidide; lactam N-11) here?
A: 0.17 ×10⁻⁶ cm/s

Q: For CCCCN1CC(=O)N(C)[C@@H](Cc2ccccc2)C(=O)N(C)[C@@H](CC(C)C)C(=O)N[C@@H](COCC(C)(C)CO)C(=O)N(C)[C@@H](CC(C)C)C(=O)N[C@H](C(=O)N2CCCCC2)CC(=O)N(C)CC(=O)N(C)[C@@H](Cc2ccccc2)C(=O)N[C@@H](C(C)C)C(=O)N(C)[C@@H](CC(C)C)C(=O)N[C@@H]([C@@H](C)O)C1=O [AP124] ([Sar][NMeF]V[NMeL]T[NBuGly][NMeF][NMeL]S(Propyl(2,2-Me2,3-OH))[NMeL]D-Piperidide; lactam N-11), which Papp is on record?
A: 1.6 ×10⁻⁶ cm/s
